In patent US11274132B2, “Combined preparations of PKM2 modulators and HMGB1” (Ruprecht-Karls-Universität Heidelberg, priority 2015, dated 2022):

Key:
[1] = test system: ATP production; assay: ATP production calculated from lactate production rates and oxygen consumption; format: cell-based, human; details: SW480 cells; HMGB1 80 nM, 24 h
Description: (§1) Lactate derived from the metabolism of ^13C6-D-glucose or ^13C5-glutamine was determined by comparing the CH3 group intensities of labeled and non-labeled lactate in NMR. Mitochondrial respiration was measured using an Oroboros 1 oxygraph system. Glycolysis was measured by monitoring the conversion of 5-^3H-Glucose to ^3H2O. Incorporation of ^14C into RNA ribose from U-^14C-labelled glucose was taken as glucose utilization in the pentose phosphate shunt. Enzymatic activities were determined in subcellular fractions as previously described^24.
For analysis of ^13C-lactate efflux 1 ml of the cellular supernatant was centrifuged (8,000×g, 10 min, 4° C.) to spin down cellular debris. To 500 μl of the supernatant 10% of D2O were added respectively and transferred to 5 mm NMR sample tubes. The samples were measured with a Bruker AvanceIII 600 NMR spectrometer, equipped with a cryogenically cooled detection probe (QNP-CryoProbe™).

[2] = target: T1, tetrameric PK M2 (Homo sapiens, UniProt P14618); assay: Pyruvate kinase enzymatic assay in cytosolic fractions / homogenates (low PEP); format: cell-based
T1 construct: Activities of glycolytic enzymes measured in cytosolic fractions after treatment with HMGB1; endogenous in cells; host or cells: SW480, HCT116, HT29 cytosolic fractions; homogenates of human colon cancer tissue slices
Description: (§2) Enzymatic activities of respiratory chain complexes, glycolytic proteins and malic enzyme were determined in subcellular fractions as previously described (Kaminski, M. M. et al. T cell activation is driven by an ADP-dependent glucokinase linking enhanced glycolysis with mitochondrial reactive oxygen species generation. Cell reports 2, 1300-1315 (2012).Bruncko, M. et al. Naphthamidine urokinase plasminogen activator inhibitors with improved pharmacokinetic properties. Bioorganic & medicinal chemistry letters 15, 93-98, (2005)) using a computer-tuneable spectrophotometer (Spectramax Plus Microplate Reader, Molecular Devices; Sunny Vale, Calif., USA) operating in the dual wavelength mode; samples were analyzed in temperature-controlled 96-well plates in a final volume of 300 μl. Activity of ME1 was recorded in presence of increasing amounts of malic acid (0.02, 0.05, 0.1, 0.2, 0.5, 1, 2.5 mM). Vmax and Km were calculated using a Hanes-Woolf plot. In the presence of high substrate levels the Km for malic acid was similar in all three tested cell lines (SW480: 0.32 mM, HCT116: 0.30 mM, HT29: 0.31 mM). Vmax (mU/mg protein) values were 3.38 (SW480, 0.5-5.0 mM malic acid), 5.77 (HCT116, 0.5-5.0 mM malic acid) and 3.68 (HT29, 0.5-5.0 mM malic acid) and 1.68 (SW480, 0.02-0.2 mM malic acid), 3.24 (HCT116, 0.02-0.2 mM malic acid) and 1.89 (HT29, 0.02-0.2 mM malic acid). Two isoforms of ME1, mitochondrial (NAD(P)+dependent) ME3 and mitochondrial (NAD+dependent) ME2, had very low or no detectable activities (data not shown).

[3] = test system: SW480 colorectal cancer cells; assay: Crystal violet cytotoxicity assay; format: cell-based; details: 72 h
Description: (§3) Human colon carcinoma cell lines SW480, HCT116, HT29 and Caco2, the human glioblastoma cell line U251MG and the Natural killer cell line NK-92 Cl were purchased from ATCC. Cell lines were regularly tested for contamination by multiplex PCR performed in the Genomics and Proteomics Core Facility 2 (DKFZ, Heidelberg, Germany). For experiments, cells were cultured for no more than 10 passages. Rho zero cells were generated as described earlier 1. (Gdynia, G. et al. Danger signaling protein HMGB1 induces a distinct form of cell death accompanied by formation of giant mitochondria. Cancer research 70, 8558-8568). Cells used in the experiments were cultured in RPMI (#1640, colon carcinomas, NK cells) or DMEM high glucose (#41965-039, glioblastoma cells) medium. Rho zero cells were generated as described earlier (Gdynia, G. et al. ibd.). Briefly, cells were cultured in RPMI medium (10% FCS, 1% P/S) supplemented with 250 ng/ml ethidiumbromide, 50 μg/ml L-pyruvate and 5 mg/ml uridine over a period of 12 weeks. For cytotoxicity measurements, cells were cultured in 96-well plates, treated with recombinant human HMGB1 protein (Sigma-Aldrich®), glycyrrhizinic acid ((3β, 18α)-30-hydroxy-11, 30-dioxoolean-12-en-3-yl 2-O-β-D-glucopyranuronosyl-β-D-glucopyranosiduronic acid)) (Sigma-Aldrich®), 10 μM (non-toxic) or 100 μM (cytotoxic) P-M2tide (aa sequence: GGAVDDDpYAQFANGG; #BML-P239-0001; Enzo Life Sciences) or 100 μM ML-265 (Cayman Chemical), then cell viability was assessed by crystal violet staining (Gillies, R. J., Didier, N. & Denton, M. Determination of cell number in monolayer cultures. Analytical biochemistry 159, 109-113 (1986)). Malic enzyme 1 knock-down was performed with 40 nM siRNA using lipofectamine in 6-well plates followed by treatment with 80 nM HMGB1 for 72 h. Sequences of siRNA were: ME1, 5′-[…]-3′ and scrambled control 5′-CCUGCAGUACUUCAAGCGGtt-3′. PKM2 siRNA was from Santa Cruz. A nonspecific siRNA served as control (Dharmacon, Schwerte, Germany). For overexpression of PKM2 or ME1, cells were transfected with pCMV-PKM2 (Sino Biological Inc., Beijing, China) or pCMV-ME1 (OriGene, Rockville, Md., USA) using Lipofectamine 2000. For cytotoxicity measurements confluent cells were cultured in 96-well plates if not otherwise indicated. Cytotoxic activity of supernatants from stimulated NK cells was assessed in 96-well plates for 3 days with RPMI medium as reference. Recombinant human HMGB1 (10 ng, Sigma) suited as positive control. For mass isotopomer assays, cells were cultured in glucose- or glutamine-free medium supplemented with either uniformly labeled (U)-13C-D-glucose or U-13C-glutamine (Sigma-Aldrich®).

[4] = test system: HCT116 colorectal cancer cells; assay: Crystal violet cytotoxicity assay; format: cell-based; details: 72 h
Description: as §3

[5] = test system: HT29 cells; assay: Crystal violet cytotoxicity assay; format: cell-based
Description: as §3

[6] = target: T2, Dimeric PK M2 (Homo sapiens, UniProt P14618); assay: Pyruvate kinase enzymatic assay (high PEP); format: cell-based; details: colorectal cancer cells
T2 construct: Activities of glycolytic enzymes measured in cytosolic fractions after treatment with HMGB1; endogenous in cells; host or cells: SW480, HCT116, HT29 cytosolic fractions; homogenates of human colon cancer tissue slices
Description: as §2, with “Two isoforms of ME1, mitochondrial (NAD(P)+dependent) ME3 and mitochondrial (NAD+dependent) ME2, had very low or no detectable activities (data not shown).” left out

[7] = test system: mitochondrial oxygen consumption; assay: Mitochondrial (cyanide sensitive) respiration, Oroboros oxygraph; format: cell-based, human
Description: as §1

[8] = NK cell derived HMGB1 approx. 16 nM, recombinant human HMGB1 80 nM

T1 sequence (P14618 2-531): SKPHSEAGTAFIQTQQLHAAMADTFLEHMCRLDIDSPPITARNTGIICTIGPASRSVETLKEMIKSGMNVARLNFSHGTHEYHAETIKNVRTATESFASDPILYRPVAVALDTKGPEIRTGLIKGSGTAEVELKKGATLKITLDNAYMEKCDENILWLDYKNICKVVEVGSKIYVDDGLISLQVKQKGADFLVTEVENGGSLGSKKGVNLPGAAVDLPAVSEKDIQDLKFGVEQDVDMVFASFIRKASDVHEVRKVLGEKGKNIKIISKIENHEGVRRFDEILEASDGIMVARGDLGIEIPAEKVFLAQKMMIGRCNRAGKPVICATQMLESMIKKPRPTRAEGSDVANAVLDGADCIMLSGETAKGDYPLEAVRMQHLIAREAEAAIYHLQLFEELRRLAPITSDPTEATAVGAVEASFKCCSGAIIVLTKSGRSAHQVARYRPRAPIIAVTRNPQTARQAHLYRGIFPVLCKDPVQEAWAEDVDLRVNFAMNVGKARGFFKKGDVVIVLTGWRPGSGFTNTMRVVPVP
T2 sequence (P14618 2-531 limits assumed): as the sequence (P14618 2-531) above

In the case of “HMGB1: recombinant human HMGB1 protein (Sigma-Aldrich); High Mobility Group Box 1 polypeptide, human, SEQ ID NO: 4”, the “decline of ATP production” value [1] is reported as roughly 50%, the “tetrameric PK M2 activity” value ([2]; all colorectal cancer cell lines tested, HMGB1 80 nM, 24 h) is reported as “specifically inhibited” and the “tetrameric PK M2 activity” value ([2]; ex vivo tissue slice cultures, HMGB1 160 nM, 72 h) is reported as “specifically inhibited”. For the same substance, the “cell death (cytotoxicity)” value [3, 8] was “efficiently killed”, the “sensitivity of respiratory chain deficient (ρ0) cells to HMGB1” value ([3]; ρ0 SW480, HMGB1 160 nM) was “almost completely resistant” and the “cell death (cytotoxicity)” value [4, 8] was “efficiently killed”. The “sensitivity of respiratory chain deficient (ρ0) cells to HMGB1” value ([4]; ρ0 HCT116, HMGB1 160 nM) was “almost completely resistant”, the “sensitivity of cells to HMGB1” value ([5]; low to intermediate HMGB1 concentrations (16 to 80 nM)) was “resistant” and the “sensitivity towards HMGB1 cytotoxicity after down-regulation of ME1” value ([5]; siRNA knock-down of ME1, HMGB1 80 nM, 72 h) was “sensitization”. The “Dimeric PK M2 activity” value [6] was “unchanged”, the “inhibition of mitochondrial oxygen consumption” value ([7]; HCT116 cells, HMGB1 80 nM, 24 h) was “pronounced” and the mitochondrial respiration ([7]; HT29 cells, HMGB1 80 nM, 24 h) was “only slightly reduced”. The “inhibition of mitochondrial oxygen consumption” value ([7]; SW480 cells, HMGB1 80 nM, 24 h) was “pronounced” and the mitochondrial oxygen consumption ([7]; colorectal cancer tissue slices, HMGB1 160 nM, 72 h) was “strongly decreased”.
